The record followed here is patent publication US7332495B2 (priority 2002, dated 2008).

SMILES strings stand for the structures. Where a name gives a salt, the structure may show the parent alone.

On to `O=C(CN1CCN(Cc2ccccc2)CC1)c1ccc(Cl)cc1` (as salt: hydrochloride) [IV-6, N^1-benzyl-N^4-(4-chlorophenacyl)piperazine], for which the melting point (commonly the temperature of the solid-liquid transition) was 231 to 233 °C.

As for `O=C(CN1CCN(Cc2ccccc2)CC1)c1ccc2ccccc2c1` (as salt: hydrochloride) [IV-7, N^1-benzyl-N^4-(2-naphthoylmethyl)piperazine], the melting point was 241 °C (dec.).

For the compound `COc1ccc(C(=O)CN2CCN(Cc3ccccc3)CC2)cc1` (as salt: hydrochloride) [IV-8, N^1-benzyl-N^4-(4-methoxyphenacyl)piperazine], the melting point fell in the range of 228 to 230 °C.

In the case of `O=C(CN1CCN(Cc2ccccc2)CC1)c1ccc([N+](=O)[O-])cc1` (as salt: hydrochloride) [IV-9, N^1-benzyl-N^4-(4-nitrophenacyl)piperazine], the melting point is 236 to 238 °C.

Take `COc1ccc(CN2CCN(CC(=O)c3ccccc3)CC2)cc1` (as salt: hydrochloride) [IV-10, N^1-(4-methoxybenzyl)-N^4-phenacyl piperazine]: the melting point lay in the range of 222 to 224 °C.

Regarding `O=C(CN1CCN(Cc2cccnc2)CC1)c1ccccc1` (as salt: hydrochloride) [IV-11, N^1-(3-pyridylmethyl)-N^4-phenacyl piperazine], the melting point lay within 225 to 226 °C.

For the compound `CC(C(=O)c1ccccc1)N1CCN(Cc2ccc(N)cc2)CC1` (centres unmarked) (as salt: hydrochloride) [IV-13, N^1-(4-aminobenzyl)-N^4-(1-benzoylethyl)piperazine], the melting point is 244 to 246 °C (dec.).

In turn, `O=C(CN1CCN(CCc2ccccc2)CC1)c1ccccc1` (as salt: hydrochloride) [IV-14, N^1-phenethyl-N^4-phenacyl piperazine] gave a melting point of 238 to 240 °C.

The compound `COc1ccc(OC)c(CN2CCN(CC(=O)c3ccccc3)CC2)c1` (as salt: hydrochloride) [IV-15, N^1-(2,5-dimethoxybenzyl)-N^4-phenacyl piperazine] displayed a melting point of 238 to 240 °C.

As for `Nc1ccc(C(=O)CN2CCN(Cc3ccccc3)CC2)cc1` (as salt: hydrochloride) [IV-16, N^1-benzyl-N^4-(4-aminophenacyl)piperazine], the melting point is 286 to 288 °C.

Regarding `O=C(CCN1CCN(Cc2ccccc2)CC1)c1ccccc1` (as salt: hydrochloride) [IV-17, N^1-benzyl-N^4-(2-benzoylethyl)piperazine], the melting point was 230 to 232 °C.

Consider `CC(=O)Nc1ccc(C(=O)CN2CCN(Cc3ccc([N+](=O)[O-])cc3)CC2)cc1` (as salt: hydrochloride) [IV-18, N^1-(4-nitrobenzyl)-N^4-[(4-acetamido)phenacyl]piperazine], for which the melting point was in the range of 228 to 230 °C.

`O=C(CN1CCN(Cc2ccc3c(c2)OCO3)CC1)c1ccccc1` (as salt: hydrochloride) [IV-19, N^1-(3,4-methylenedioxybenzyl)-N^4-phenacyl piperazine]: the melting point was in the range of 240 to 241 °C.

For `O=C(CN1CCN(Cc2ccc(F)cc2)CC1)c1ccc(Cl)cc1` (as salt: hydrochloride) [IV-20, N^1-(4-fluorobenzyl)-N^4-(4-chlorophenacyl)piperazine], the melting point was 246 to 248 °C (dec.).

Consider `CC(=O)Nc1ccc(CN2CCN(CC(=O)c3ccccc3)CC2)cc1` (as salt: hydrochloride) [IV-21, N^1-(4-acetamidobenzyl)-N^4-phenacyl piperazine], for which the melting point lay in the range of 238 to 240 °C.

Regarding `COc1ccc(CN2CCN(C(C)C(=O)c3ccc4c(Cl)c(OC)ccc4c3)CC2)cc1` (centres unmarked) (as salt: hydrochloride) [IV-31, N^1-(4-methoxybenzyl)-N^4-[1-(5-chloro-6-methoxy-2-naphthoyl)ethyl]piperazine], the melting point lay within 222 to 224 °C.

Regarding `CC(c1ccccc1)N1CCN(CC(=O)c2ccccc2)CC1` (centres unmarked) (as salt: hydrochloride) [IV-37, N^1-(1-phenylethyl)-N^4-phenacyl piperazine], the melting point was 242 °C (dec.).
